The values that follow come from PubChem BioAssay (NCI).

Values joined by “and” are separate entries in the source; they are usually repeats but may differ in a detail not shown here. Equal values may be shown once.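 Values below derive from 48-hour exposures of cells grown in 96-well plates, with endpoints linearly interpolated between the two concentrations bracketing the appropriate inhibition level. GI50 is the concentration that inhibits growth by half. At the TGI there is no net growth.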

What all share (assay): DTP human tumour cell line panel, 48 h
For assay [1], the system named is 786-0 renal.
Assay [2] has as its system BT-549 breast.
Assay [3] concerns HCT-116 colon.
Assay [4] has as its system MCF7 breast.
Assay [5] deals with OVCAR-4 ovarian.
Assay [6] deals with PC-3 prostate.
Assay [7] deals with SF-295 CNS.
The test system of assay [8] is SK-MEL-2 melanoma.
Assay [9] deals with SK-MEL-5 melanoma.
Assay [10] concerns SNB-19 CNS.

Consider `C/C(N=Nc1nc2ccccc2s1)=C1/C=CC=CN1O`, for which the TGI in assay [1] was greater than 100 µM; in assay [2] it was greater than 100 µM; in assay [3], greater than 100 µM; in assay [4], 60.5 µM; in [5] it was greater than 100 µM; in [6] it was greater than 100 µM. The TGI in assay [7] was 3.72 µM; in [8] it was greater than 100 µM; in assay [9], greater than 100 µM; in [10] it was greater than 100 µM.

For the compound `CN(C)c1ccc(-c2c(C#N)c(S)n(NS(=O)(=O)c3ccccc3)c(=O)c2C#N)cc1`, the TGI in assay [1] is 40.6 µM; in [2] it was 61.7 µM; in assay [3], greater than 100 µM; in assay [4] it was greater than 100 µM; in assay [5] it was 74.2 µM; in assay [6], greater than 100 µM. Moreover, the TGI in assay [7] is greater than 100 µM; in assay [8], greater than 100 µM; in [9], 72.2 µM; in assay [10] it was greater than 100 µM.

For the compound `Cc1cc(-c2nc3c(O)cccc3s2)ccc1N`, the TGI came out at 95.1 µM in assay [1]; 58.3 µM in [2]; 49 µM in assay [3]; 32.6 µM in assay [4]; 52.6 µM in assay [6]; 72.2 µM in assay [7]. In addition, the TGI is 52.9 µM in assay [8], greater than 100 µM in assay [9] and 41 µM in assay [10].

As for `C=C1C(=O)OC2/C=C(\CO)C(OC(C)=O)CC(O)/C(C)=C/C(OC(=O)C(C)CC)C12` (stereo not given), the TGI was 28.8 µM and 52.9 µM in assay [1]; 36.9 µM in assay [2]; 27.6 µM and 42.5 µM in assay [3]; 25.8 µM in assay [4]; 32.5 µM and > 100 µM in [5]; greater than 100 µM in assay [6]. Also, the TGI is greater than 100 µM in [7]; 32.3 µM and 33.1 µM in [8]; 33 µM and 30.9 µM in assay [9]; greater than 100 µM in assay [10].

Consider `C=C(Cl)/C(=C\Cl)CCC(Br)C(C)C` (stereo not given), for which the TGI in [1] was greater than 100 µM; in assay [2], greater than 100 µM; in assay [3] it was greater than 100 µM; in assay [4] it was greater than 100 µM; in assay [5] it was 95.5 µM; in assay [6] it was greater than 100 µM. Further, the TGI in [7], in [8], in assay [9] and in assay [10] was greater than 100 µM throughout.

Consider `O=C1CCC(=Nc2ccc(Cl)cc2)N1C(=O)COc1ccc(OCC(=O)N2C(=O)CSC2=Nc2ccc(Cl)cc2)cc1`, for which the TGI in assay [1], in assay [2], in [3], in assay [4], in assay [5] and in [6] was greater than 100 µM throughout. Besides, the TGI in [7], in assay [8], in [9] and in [10] was greater than 100 µM throughout.

On to `CCCCCCCCCC[C@H](O)[C@H]1CC[C@H]([C@H]2CC[C@H]([C@H](O)CC[C@H](O)CCCCCCC[C@@H](O)CC3=C[C@H](C)OC3=O)O2)O1`, for which the TGI in assay [1], in [2], in assay [3], in assay [4], in assay [5] and in assay [6] was greater than 100 µM in each case. In addition, the TGI in [7] is greater than 100 µM; in assay [8], greater than 100 µM; in assay [9], 3.93 µM; in assay [10], greater than 100 µM. Also, in [4], the GI50 was 3.98 µM.

Regarding `CC1(C)O[C@@H]2COC(=O)[C@@H]2O1`, the TGI in assay [1], in assay [2], in assay [3], in [4], in assay [5] and in [6] was greater than 100 µM in each case. Further, the TGI in [7], in assay [8], in assay [9] and in assay [10] was greater than 100 µM each time.

As for `CCCCOC(C)(C)/C=C/C(O)[C@](C)(O)[C@H]1[C@H](O)C[C@@]2(C)[C@@H]3CCc4c(cc(OC5OC(CO)C(O)C(O)C5O)c(O)c4C)C3(C)C(=O)C[C@]12C` (stereo not given in full), the TGI in assay [1], in assay [2], in assay [3], in assay [4], in assay [5] and in [6] was greater than 100 µM in each case. Also, the concentration for total growth inhibition (TGI) in assay [7], in [8], in assay [9] and in assay [10] was greater than 100 µM each time.

As for `c1ccc2c(c1)[nH]c1nc3cc(-c4ccc5nc6c(nc5c4)[nH]c4ccccc46)ccc3nc12`, the TGI in assay [1], in [2], in assay [3], in assay [4], in assay [5] and in assay [6] was greater than 100 µM in each case. Also, the TGI in [7], in assay [8], in assay [9] and in [10] was greater than 100 µM throughout.

On to `N#Cc1c(-c2ccccc2)/c(=C\Nc2ccc(Cl)cc2)c(=O)n2c1nc1ccccc12`, for which the TGI in assay [1] is greater than 100 µM; in assay [2], greater than 100 µM; in assay [3], 19.6 µM; in [4] it was greater than 100 µM; in assay [5], greater than 100 µM; in assay [6], greater than 100 µM. In addition, the TGI in assay [7], in [8], in assay [9] and in assay [10] was greater than 100 µM in each case.

For `CC(CC(C#N)(c1ccccc1)c1ccccc1)N1CCCCC1` (stereo not given), the concentration for total growth inhibition (TGI) in assay [1] was 80.3 µM; in assay [2], greater than 100 µM; in [3], 57.7 µM; in assay [4] it was 74.7 µM; in [5] it was greater than 100 µM; in [6], greater than 100 µM. The TGI in [7] was 65.8 µM; in assay [8], 46.4 µM; in assay [9], 33.6 µM; in assay [10], greater than 100 µM.

For the compound `CCC[C@H]1C(=O)N=C(N)N1C(=O)OCc1ccccc1`, the TGI in [1], in assay [2], in assay [3], in assay [4], in assay [5] and in [6] was greater than 100 µM each time. Moreover, the TGI in assay [7], in assay [8], in assay [9] and in assay [10] was greater than 100 µM each time.
